Measured values reported in patent US20120034193A1, “TREATMENT OF NEUROTROPHIC FACTOR MEDIATED DISORDERS” (priority 2009, published 2012).
Marks after values point to notes of the source that are not given here.

Key:
[1] = test system: Glycine, Strychnine-Sensitive; assay: Binding assay; set-up: species or system Rat; conditions: smilagenin 1 μM
[2] = test system: dopamine transporter (DAT); assay: Striatal DAT level in control and MPTP mice, 61 or 71 days of dosing; format: in vivo, C57 mice; conditions: 10 mg/kg/day oral
Protocol: In a similar experiment, 10-week old male C57 mice received daily injections of saline or MPTP (25 mg/kg/day, i.p.) for 5 consecutive days (days 1-5) and oral administration of smilagenin (10 mg/kg/day) or vehicle (HPMC 0.5% w/v containing tween-80 0.2% v/v) for 61 days (days […]) or 71 days (days 2-72) after which time their brains were removed for quantification of striatal levels of DAT, marker of the extent of neuronal damage to dopaminergic neurones

Transporter, Monoamine = assay: Binding assay; set-up: species or system Rabbit; conditions: smilagenin 1 μM
Protocol: (§1) The receptor binding was investigated using the following method: Sarsasapogenin was incubated with tissue or cell homogenate that expressed the receptor of interest and a known concentration a radiolabelled compound with affinity for the receptor of interest. After the incubation period the non-bound radiolabelled compound was removed and the amount of specific binding was quantified. The amount of specific binding in the presence and absence of sarsasapogenin were compared and the percent inhibition of the binding of the radiolabelled compound by sarsasapogenin was calculated. The source of the receptor, the incubation conditions, the radiolabelled compound used varied depending on each specific assay.
(§2) Using the same methods as described above, the binding of smilagenin (1 μM) to the receptors listed in Table 2 below, and the effect of smilagenin on the activity of the enzymes listed in Table 2 below, were investigated.

Nicotinic Acetylcholine = assay: Binding assay; set-up: species or system Human; conditions: smilagenin 1 μM
Protocol: as §1, §2

[3] = test system: Tumour Necrosis Factor (TNF), non-selective; assay: Binding assay; set-up: species or system Human; conditions: smilagenin 1 μM
Protocol: as §1, §2

Chemokine CXCR1 = assay: Binding assay; set-up: species or system Human; conditions: smilagenin 1 μM
Protocol: as §1, §2

[4] = test system: Vascular Endothelial Growth Factor (VEGF); assay: Binding assay; set-up: species or system Human; conditions: smilagenin 1 μM
Protocol: as §1, §2

MPTP-lesioned macaques = assay: Parkinsonian disability in MPTP-lesioned macaques; format: in vivo, Macaca fascicularis
Protocol: Nineteen female cynomolgus monkeys (Macaca fascicularis, 3.0-4.5 kg, 4-6 years old) were acclimatised to the experimental setting and procedures for 3 months and baseline behaviour was assessed in all animals. Fourteen female macaques received MPTP (0.2 mg/kg/day, s.c.) until marked, stable, parkinsonian symptoms developed. Animals (n=7/group) were randomly assigned to two groups; smilagenin (20 mg/kg/day, p.o.) or vehicle control (HPMC, 0.5% w/v containing Tween 80, 0.2% v/v).
Assessments of parkinsonian disability were made after MPTP administration and following 18 weeks of smilagenin or vehicle administration. Parkinsonian disability was evaluated by post hoc analysis of DVD-recordings by a neurologist blinded to the treatment. At the end of the study the brains were removed and the levels of unbound GDNF and BDNF in the putamen were measured using Multiplex ELISA/Aushon assays. The MPTP treated macaques used in this experiment thus provide an accepted model for Parkinson's disease and similar motor-sensory neurodegenerative conditions.

Phorbol Ester = assay: Binding assay; set-up: species or system Mouse; conditions: smilagenin 1 μM
Protocol: as §1, §2

[5] = test system: Platelet-Derived Growth Factor (PDGF); assay: Binding assay; set-up: species or system Mouse; conditions: smilagenin 1 μM
Protocol: as §1, §2

[6] = test system: Transforming Growth Factor-β (TGF-β); assay: Binding assay; set-up: species or system Mouse; conditions: smilagenin 1 μM
Protocol: as §1, §2

[7] = target: Nicotinic Acetylcholine α1, Bungarotoxin (Homo sapiens, UniProt P02708+P07510+Q07001); assay: Binding assay; conditions: smilagenin 1 μM
[8] = test system: dopamine transporter (DAT); assay: Striatal DAT level in MPTP-lesioned mice ([I^125]-RTI binding), 60 days; format: in vivo, C57b1/6 RJ mice; conditions: 10 mg/kg/day oral, control 74.4, MPTP 23.4
Protocol: Seven-week old male C57b1/6 RJ mice (C57 mice) received daily injections 1-methyl-4-phenyl-1,2,3,6-tetrahydropyridine (MPTP, 25 mg/kg/day, i.p., for 5 consecutive days) and oral administration of smilagenin (10 mg/kg/day) or vehicle (hydroxylpropylmethylcellulose, HPMC 0.5% w/v containing tween-80 0.2% v/v) for 60 days after which time their brains were removed for quantification of striatal levels of GDNF and BDNF using an ELISA and of dopamine transporter (DAT) levels using [I^125]-RTI binding. DAT is a marker for neuronal damage to dopaminergic neurones.

Oestrogen = assay: Receptor binding assay; set-up: species or system Bovine; conditions: sarsasapogenin 10 μM
Protocol: as §1

Progesterone = assay: Receptor binding assay; set-up: species or system Bovine; conditions: sarsasapogenin 10 μM
Protocol: as §1

Acetyl CoA synthetase = assay: Enzyme activity assay; format: biochemical, Yeast; conditions: sarsasapogenin 100 μM
Protocol: (§3) The enzyme activity modulation was investigated using the following method: Sarsasapogenin was incubated with each enzyme plus a specific substrate for each enzyme. After the incubation period the reaction was stopped and the reduction of the specific substrate or the increase in a specific product in the absence and presence of sarsasapogenin was measured and the percent inhibition of the reaction in the presence of sarsasapogenin was calculated. The amount of enzyme used, the incubation conditions, the substrate used and the method of quantification varied depending on each specific assay.

[9] = target: Choline acetyltransferase (Homo sapiens, UniProt P28329); assay: Enzyme activity assay; format: biochemical; conditions: sarsasapogenin 100 μM
Protocol: as §3

Acetylcholinesterase = Acetylcholinesterase (Homo sapiens, UniProt P22303); assay: Enzyme activity assay; format: biochemical; conditions: sarsasapogenin 10 μM
Protocol: as §3

Chain of Acetylcholinesterase (P22303 32-614): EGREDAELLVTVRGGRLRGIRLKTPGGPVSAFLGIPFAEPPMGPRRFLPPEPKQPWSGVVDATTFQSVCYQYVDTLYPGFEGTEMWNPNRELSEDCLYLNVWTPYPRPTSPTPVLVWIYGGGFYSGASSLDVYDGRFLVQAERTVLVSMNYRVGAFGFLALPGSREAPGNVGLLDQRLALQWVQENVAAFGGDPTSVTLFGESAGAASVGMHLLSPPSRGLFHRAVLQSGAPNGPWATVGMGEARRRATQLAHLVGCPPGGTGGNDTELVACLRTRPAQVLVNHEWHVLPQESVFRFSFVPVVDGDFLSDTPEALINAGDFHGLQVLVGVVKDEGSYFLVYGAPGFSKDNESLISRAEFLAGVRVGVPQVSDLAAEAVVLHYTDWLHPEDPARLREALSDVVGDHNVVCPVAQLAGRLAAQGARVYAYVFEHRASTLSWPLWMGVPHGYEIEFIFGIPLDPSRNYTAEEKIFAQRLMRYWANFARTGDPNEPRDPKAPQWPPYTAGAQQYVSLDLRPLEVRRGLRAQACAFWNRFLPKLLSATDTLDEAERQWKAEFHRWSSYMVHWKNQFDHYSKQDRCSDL
Chain of Nicotinic Acetylcholine α1, Bungarotoxin (P07510 23-517): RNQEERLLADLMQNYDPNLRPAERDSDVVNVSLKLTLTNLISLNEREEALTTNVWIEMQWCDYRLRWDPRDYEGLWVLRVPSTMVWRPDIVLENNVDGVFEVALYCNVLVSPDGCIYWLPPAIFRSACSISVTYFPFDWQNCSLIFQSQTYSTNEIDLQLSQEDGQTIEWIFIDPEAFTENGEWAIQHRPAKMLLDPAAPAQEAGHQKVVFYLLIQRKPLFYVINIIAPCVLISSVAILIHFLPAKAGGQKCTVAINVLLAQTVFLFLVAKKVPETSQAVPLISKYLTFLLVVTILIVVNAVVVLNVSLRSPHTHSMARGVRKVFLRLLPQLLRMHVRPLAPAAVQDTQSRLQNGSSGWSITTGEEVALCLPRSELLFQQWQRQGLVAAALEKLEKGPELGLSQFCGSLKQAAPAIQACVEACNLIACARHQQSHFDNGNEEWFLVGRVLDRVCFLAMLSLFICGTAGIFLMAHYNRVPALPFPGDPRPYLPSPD
Chain of Nicotinic Acetylcholine α1, Bungarotoxin (P11230 24-501, further chain): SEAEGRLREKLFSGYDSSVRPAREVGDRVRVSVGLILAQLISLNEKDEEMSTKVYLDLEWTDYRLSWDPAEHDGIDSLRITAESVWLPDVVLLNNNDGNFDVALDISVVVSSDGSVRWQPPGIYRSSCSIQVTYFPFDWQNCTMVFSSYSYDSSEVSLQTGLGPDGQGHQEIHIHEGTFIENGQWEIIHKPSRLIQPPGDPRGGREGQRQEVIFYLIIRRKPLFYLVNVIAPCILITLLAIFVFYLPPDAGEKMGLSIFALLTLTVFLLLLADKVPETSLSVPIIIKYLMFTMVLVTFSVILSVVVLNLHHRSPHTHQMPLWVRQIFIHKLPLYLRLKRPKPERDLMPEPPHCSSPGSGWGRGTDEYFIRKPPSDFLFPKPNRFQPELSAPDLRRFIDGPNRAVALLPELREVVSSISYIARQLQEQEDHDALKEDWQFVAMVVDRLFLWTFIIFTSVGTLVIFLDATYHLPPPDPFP
Chain of Nicotinic Acetylcholine α1, Bungarotoxin (Q07001 22-517): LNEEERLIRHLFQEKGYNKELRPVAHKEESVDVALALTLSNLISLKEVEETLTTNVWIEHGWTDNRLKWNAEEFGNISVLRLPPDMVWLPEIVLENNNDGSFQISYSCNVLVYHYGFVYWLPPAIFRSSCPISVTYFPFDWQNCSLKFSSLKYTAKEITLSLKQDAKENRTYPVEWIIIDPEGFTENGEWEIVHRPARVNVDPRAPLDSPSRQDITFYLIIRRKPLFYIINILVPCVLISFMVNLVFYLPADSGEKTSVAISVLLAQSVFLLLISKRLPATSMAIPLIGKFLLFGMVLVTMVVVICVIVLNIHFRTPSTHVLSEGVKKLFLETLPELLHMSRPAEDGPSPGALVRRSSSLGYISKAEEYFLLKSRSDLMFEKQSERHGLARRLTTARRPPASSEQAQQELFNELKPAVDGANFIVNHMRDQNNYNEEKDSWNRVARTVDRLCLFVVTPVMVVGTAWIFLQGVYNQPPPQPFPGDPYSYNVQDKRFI
Chain of Nicotinic Acetylcholine α1, Bungarotoxin (P02708 21-457): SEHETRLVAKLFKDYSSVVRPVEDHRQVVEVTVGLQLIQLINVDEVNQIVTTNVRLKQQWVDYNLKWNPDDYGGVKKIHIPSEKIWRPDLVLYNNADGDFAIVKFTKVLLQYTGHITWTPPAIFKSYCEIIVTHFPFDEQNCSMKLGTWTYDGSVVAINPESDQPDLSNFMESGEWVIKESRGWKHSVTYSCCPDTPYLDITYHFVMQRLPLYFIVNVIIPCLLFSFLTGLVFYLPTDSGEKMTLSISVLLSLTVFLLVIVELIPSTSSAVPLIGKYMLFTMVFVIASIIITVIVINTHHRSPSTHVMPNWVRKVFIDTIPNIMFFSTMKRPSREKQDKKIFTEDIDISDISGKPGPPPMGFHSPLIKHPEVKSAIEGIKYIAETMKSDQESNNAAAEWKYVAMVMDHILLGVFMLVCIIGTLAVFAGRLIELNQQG
Chain of Choline acetyltransferase (P28329 whole entry): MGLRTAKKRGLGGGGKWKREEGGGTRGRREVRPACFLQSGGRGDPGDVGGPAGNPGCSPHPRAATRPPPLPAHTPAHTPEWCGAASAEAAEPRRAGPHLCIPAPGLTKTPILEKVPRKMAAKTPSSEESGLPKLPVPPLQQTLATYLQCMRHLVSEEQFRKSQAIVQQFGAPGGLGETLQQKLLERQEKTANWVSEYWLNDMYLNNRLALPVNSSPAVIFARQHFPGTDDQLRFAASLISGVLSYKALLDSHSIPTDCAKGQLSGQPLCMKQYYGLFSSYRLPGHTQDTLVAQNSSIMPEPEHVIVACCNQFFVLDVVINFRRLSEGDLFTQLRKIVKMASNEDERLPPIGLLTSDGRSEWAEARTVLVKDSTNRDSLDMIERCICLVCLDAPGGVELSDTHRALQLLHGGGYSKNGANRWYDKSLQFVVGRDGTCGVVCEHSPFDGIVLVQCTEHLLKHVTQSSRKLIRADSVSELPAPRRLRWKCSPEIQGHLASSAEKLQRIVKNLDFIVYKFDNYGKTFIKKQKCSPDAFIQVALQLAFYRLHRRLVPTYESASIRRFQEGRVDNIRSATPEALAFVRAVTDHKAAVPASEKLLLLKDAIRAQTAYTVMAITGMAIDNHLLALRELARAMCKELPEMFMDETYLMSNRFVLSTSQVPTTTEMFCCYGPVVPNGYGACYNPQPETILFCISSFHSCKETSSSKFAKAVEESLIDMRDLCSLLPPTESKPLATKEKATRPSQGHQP

Q: `C[C@@H]1CC[C@@]2(OC1)O[C@H]1C[C@H]3[C@@H]4CC[C@@H]5C[C@@H](O)CC[C@]5(C)[C@H]4CC[C@]3(C)[C@H]1[C@@H]2C` [Smilagenin, smilagenin] was tested. Which “Effect (%)” value [1] did it give?
A: NS (NS = No significant response. Significance was taken as ≧30% stimulation or inhibition)

Q: And the “DAT level ([I^125]-RTI binding in the striatum; nCi/g protein)” value (“DAT level” for short) ([2]; MPTP mice, days 2-72)?
A: 256.2 ± 21.4^++++ nCi/g protein

Q: And the “DAT level” value ([2]; MPTP mice, days 12-72)?
A: 280.3 ± 18.3^++++ nCi/g protein

Q: And the “DAT level” value ([2]; control mice (no MPTP), days 2-72)?
A: 406.2 ± 21.8 nCi/g protein

Q: What about the “Effect (%)” value (Transporter, Monoamine) of the same compound?
A: NS (NS = No significant response. Significance was taken as ≧30% stimulation or inhibition)

Q: And the “Effect (%)” value (Nicotinic Acetylcholine)?
A: NS (NS = No significant response. Significance was taken as ≧30% stimulation or inhibition)

Q: What about the “Effect (%)” value [3] of the same compound?
A: NS (NS = No significant response. Significance was taken as ≧30% stimulation or inhibition)

Q: What about the “Effect (%)” value (Chemokine CXCR1) of the same compound?
A: NS (NS = No significant response. Significance was taken as ≧30% stimulation or inhibition)

Q: And the “Effect (%)” value [4]?
A: NS (NS = No significant response. Significance was taken as ≧30% stimulation or inhibition)

Q: What about the “Median parkinsonian disability post-MPTP administration” value (MPTP-lesioned macaques; baseline of the smilagenin group, before dosing) of the same compound?
A: 47.17

Q: And the “Median parkinsonian disability at week 18” value (MPTP-lesioned macaques; smilagenin 20 mg/kg/day p.o., 18 weeks, MPTP vehicle group 41.67)?
A: 27.00^###

Q: What about the “Effect (%)” value (Phorbol Ester) of the same compound?
A: NS (NS = No significant response. Significance was taken as ≧30% stimulation or inhibition)

Q: And the “Effect (%)” value [5]?
A: NS (NS = No significant response. Significance was taken as ≧30% stimulation or inhibition)

Q: And the “Effect (%)” value [6]?
A: NS (NS = No significant response. Significance was taken as ≧30% stimulation or inhibition)

Q: What about the “Effect (%)” value [7] of the same compound?
A: NS (NS = No significant response. Significance was taken as ≧30% stimulation or inhibition)

Q: And the “DAT level” value [8]?
A: 69.7 ± 8.8 nCi/g protein

Q: How did the “Effect (%)” value (Oestrogen) turn out when `C[C@H]1CC[C@@]2(OC1)O[C@H]1C[C@H]3[C@@H]4CC[C@@H]5C[C@@H](O)CC[C@]5(C)[C@H]4CC[C@]3(C)[C@H]1[C@@H]2C` [Sarsasapogenin, sarsasapogenin] was run?
A: NS (NS = No significant response. Significance was taken as ≧30% stimulation or inhibition)

Q: What about the “Effect (%)” value (Progesterone) of the same compound?
A: NS (NS = No significant response. Significance was taken as ≧30% stimulation or inhibition)

Q: And the “Effect (%)” value (Acetyl CoA synthetase)?
A: NS (NS = No significant response. Significance was taken as ≧30% stimulation or inhibition)

Q: And the “Effect (%)” value [9]?
A: NS (NS = No significant response. Significance was taken as ≧30% stimulation or inhibition)

Q: What about the “Effect (%)” value (Acetylcholinesterase) of the same compound?
A: NS (NS = No significant response. Significance was taken as ≧30% stimulation or inhibition)
